Structures are written as SMILES. Where two headings read alike, the source gives them in different places. Some results are limits rather than exact numbers.

In data set [1] the test system is hypothermia induced by apomorphine. As to the kind of experiment: inhibition of hypothermia induced by apomorphine (apomorphine test). To be noted: Mus musculus, po, 1 h, read-out: Hypothermia inhibition from Apo16: ED-50.
A short description of data set [2]: acute oral toxicity (LD-50). To be noted: mouse, in vivo.
The test system of the next data set is convulsions. To be noted: in vivo.
The subject of the next data set is motor activity. To be noted: in vivo.
In a further data set the test system is blood pressure. The note with it: in vivo.
The subject of another data set is anticholinergic effect. To be noted: in vivo.
For a further data set, the system named is cardio-toxic. To be noted: in vivo.
Another data set relates to duodenal ulcers. Briefly: effect on duodenal ulcers. The note with it: in vivo.
The mark [3] stands for this setting: Swiss male mice, after 14 days, read-out: LD-50.

In the case of `CN(C)CCCN1c2ccccc2CCc2ccccc21` [imipramine, reference compound], the ED50 in data set [1] was in the range of 4 to 15 mg/kg.
`CN(C)CCCN1c2ccccc2N(C)S(=O)(=O)c2ccccc21` [reference compound]: in data set [2] (mice, read-out: oral LD-50), the LD50 at 336 h was 655 mg/kg. The convulsions entry in the data set on convulsions was “induces convulsions”. Besides, the motor activity entry in the data set on motor activity is “increases the motor activity”. Moreover, in the data set on blood pressure, the blood pressure result is recorded as “increases the blood pressure”. For the same molecule, the anticholinergic effect result with anticholinergic effect was “possesses anticholinergic effect”.
Consider `CCN(CC)CC(=O)N1c2ccccc2N(C)S(=O)(=O)c2ccccc21` [Compound 3, 6-Methyl-6,11-dihydro-11-(N,N-diethylamino-acetyl)dibenzo[c,f][1,2,5]thiadiazepine 5,5-dioxide], for which the LD50 at 336 h in data set [2] (setting [3]) is greater than 2000 mg/kg. Besides, the ED50 in data set [1] lay within 15 to 25 mg/kg.
Take `CN(C)CC(=O)N1c2ccc(Cl)cc2N(C)S(=O)(=O)c2ccccc21` [Compound 5, 8-chloro-6-methyl-6,11-dihydro-11-(N,N-dimethylamino-acethyl)-dibenzo[c,f][1,2,5]thiadiazepine 5,5-dioxide]: the LD50 at 336 h in data set [2] (setting [3]) fell in the range of 1000 to 1500 mg/kg. The ED50 in data set [1] lay in the range of 15 to 25 mg/kg.
For `CNCC(=O)N1c2ccccc2N(C)S(=O)(=O)c2ccccc21` [Compound 2], in that order: 750 to 1000 mg/kg and 4 to 15 mg/kg.
`CN(C)CCC(=O)N1c2ccccc2N(C)S(=O)(=O)c2ccccc21.Cl` [Compound 4, 6-Methyl-6,11-dihydro-11-[3-(N,N-dimethylamino)propionyl]dibenzo[c,f][1,2,5]thiadiazepine 5,5-dioxide hydrochloride]: the LD50 at 336 h in data set [2] (setting [3]) lay in the range of 500 to 700 mg/kg. In data set [1], the ED50 fell in the range of 15 to 25 mg/kg.
For `Cc1ccc2c(c1)N(C(=O)CN(C)C)c1ccccc1S(=O)(=O)N2C` [Compound 6, 6,9-dimethyl-6,11-dihydro-11-(N,N-dimethylaminoacetyl)-dibenzo[c,f][1,2,5]thiadiazepine 5,5-dioxide], the LD50 at 336 h in data set [2] (setting [3]) lay within 1500 to 2000 mg/kg. In data set [1], the ED50 lay in the range of 4 to 15 mg/kg.
On to `CN(C)CC(=O)N1c2ccccc2N(C)S(=O)(=O)c2ccccc21` [Compound 1, 6-Methyl-6,11-dihydro-11-(N,N-dimethylaminoacetyl)dibenzo[c,f][1,2,5]thiadiazepine 5,5-dioxide], for which the LD50 at 336 h in data set [2] (setting [3]) was 1500 to 2000 mg/kg; in data set [2] (mice, read-out: oral LD-50), 1920 mg/kg. Also, in the data set on convulsions, the convulsions result was “does not induce convulsions”. Also, the motor activity entry with motor activity was “does not alter the motor activity”. In the data set with blood pressure, the blood pressure entry is “does not alter the blood pressure”. Moreover, the anticholinergic effect result in the data set with anticholinergic effect is recorded as “induces very weak anticholinergic effects”. Also, in the data set on cardio-toxic, the cardio-toxicity entry was “is not cardio-toxic”. The duodenal ulcers entry in the data set on duodenal ulcers was “reduces duodenal ulcers”. For the same molecule, the ED50 in data set [1] is 4 to 15 mg/kg.
